Source: US20190269129A1, “COMPOSITION CONTAINING 1,2-DIBROMO-2,4-DICYANOBUTANE (DBDCB) AND ZINC PYRITHIONE (ZPT)” (LANXESS Deutschland GmbH, priority 2014, published 2019)

Columns and labels:
Type in all cases: cell-based
Conditions in all cases: 0.05 wt % biocide added
[1] = test system: Bacteria: Escherichia coli, Pseudomonas aeruginosa and Staphylococcus aureus; test: Microbiological stress test, preservation of a polymer emulsion: bacteria
Source text: (§1) The preserving effect of an inventive composition comprising DBDCB and ZPT in a polymer emulsion (acrylate-based, pH=6.5) was investigated using a microbiological stress test. The microbiological stress test examines the susceptibility of water-based systems to microbial attack and the effect of preservatives. To this end, the preservatives are incorporated in defined concentrations into the water-based systems. […] Having knowledge of the microorganism populations prevalent in polymer emulsions and dispersions the experiment employed a mixture of the following microorganism types for testing: Bacteria: Escherichia coli, Pseudomonas aeruginosa and Staphylococcus aureus.

[2] = test system: Yeasts: Candida albicans and Rhodotorula rubra; test: Microbiological stress test, preservation of a polymer emulsion: yeasts
Source text: as §1, with “Yeasts: Candida albicans” for “Bacteria: Escherichia coli, Pseudomonas aeruginosa”, “Rhodotorula rubra.” for “Staphylococcus aureus.”

[3] = test system: Molds: Acremonium strictum, Aspergillus niger and Geotrichum candidu; test: Microbiological stress test, preservation of a polymer emulsion: molds
Source text: as §1, with “Molds: Acremonium strictum, Aspergillus niger” for “Bacteria: Escherichia coli, Pseudomonas aeruginosa”, “Geotrichum candidu.” for “Staphylococcus aureus.”

[4] = week 1, polymer emulsion pH 6.5
[5] = week 2, polymer emulsion pH 6.5
[6] = week 3, polymer emulsion pH 6.5
[7] = week 4, polymer emulsion pH 6.5
[8] = week 5, polymer emulsion pH 6.5
[9] = week 6, polymer emulsion pH 6.5

## [O-][n+]1ccccc1[S-].[O-][n+]1ccccc1[S-].[Zn+2] [ZPT, zinc bis[2-pyridinethiolate]-N,N-dioxide]
[1]; [4]
  Activity of the biocides determined 1 week after germ addition, week 1: 0 (no reduction or only a minor reduction of the microbe level is observed (residual level of at least 10^5 bacteria/10^4 mold/yeast cells per g) (score of 0=poor))
[1]; [5]
  Activity of the biocides determined 1 week after germ addition, week 2: 0 (no reduction or only a minor reduction of the microbe level is observed (residual level of at least 10^5 bacteria/10^4 mold/yeast cells per g) (score of 0=poor))
[1]; [6]
  Activity of the biocides determined 1 week after germ addition, week 3: 0 (no reduction or only a minor reduction of the microbe level is observed (residual level of at least 10^5 bacteria/10^4 mold/yeast cells per g) (score of 0=poor))
[1]; [7]
  Activity of the biocides determined 1 week after germ addition, week 4: 0 (no reduction or only a minor reduction of the microbe level is observed (residual level of at least 10^5 bacteria/10^4 mold/yeast cells per g) (score of 0=poor))
[1]; [8]
  Activity of the biocides determined 1 week after germ addition, week 5: 0 (no reduction or only a minor reduction of the microbe level is observed (residual level of at least 10^5 bacteria/10^4 mold/yeast cells per g) (score of 0=poor))
[1]; [9]
  Activity of the biocides determined 1 week after germ addition, week 6: 0 (no reduction or only a minor reduction of the microbe level is observed (residual level of at least 10^5 bacteria/10^4 mold/yeast cells per g) (score of 0=poor))
[2]; [4]
  Activity of the biocides determined 1 week after germ addition, week 1: 2 (markedly reduced microbe level is observed (10^3−10^1 bacteria/10^2−10^1 mold/yeast cells per g) (score of 2=good))
[2]; [5]
  Activity of the biocides determined 1 week after germ addition, week 2: 2 (markedly reduced microbe level is observed (10^3−10^1 bacteria/10^2−10^1 mold/yeast cells per g) (score of 2=good))
[2]; [6]
  Activity of the biocides determined 1 week after germ addition, week 3: 2 (markedly reduced microbe level is observed (10^3−10^1 bacteria/10^2−10^1 mold/yeast cells per g) (score of 2=good))
[2]; [7]
  Activity of the biocides determined 1 week after germ addition, week 4: 2 (markedly reduced microbe level is observed (10^3−10^1 bacteria/10^2−10^1 mold/yeast cells per g) (score of 2=good))
[2]; [8]
  Activity of the biocides determined 1 week after germ addition, week 5: 2 (markedly reduced microbe level is observed (10^3−10^1 bacteria/10^2−10^1 mold/yeast cells per g) (score of 2=good))
[2]; [9]
  Activity of the biocides determined 1 week after germ addition, week 6: 2 (markedly reduced microbe level is observed (10^3−10^1 bacteria/10^2−10^1 mold/yeast cells per g) (score of 2=good))
[3]; [4]
  Activity of the biocides determined 1 week after germ addition, week 1: 2 (markedly reduced microbe level is observed (10^3−10^1 bacteria/10^2−10^1 mold/yeast cells per g) (score of 2=good))
[3]; [5]
  Activity of the biocides determined 1 week after germ addition, week 2: 2 (markedly reduced microbe level is observed (10^3−10^1 bacteria/10^2−10^1 mold/yeast cells per g) (score of 2=good))
[3]; [6]
  Activity of the biocides determined 1 week after germ addition, week 3: 2 (markedly reduced microbe level is observed (10^3−10^1 bacteria/10^2−10^1 mold/yeast cells per g) (score of 2=good))
[3]; [7]
  Activity of the biocides determined 1 week after germ addition, week 4: 2 (markedly reduced microbe level is observed (10^3−10^1 bacteria/10^2−10^1 mold/yeast cells per g) (score of 2=good))
[3]; [8]
  Activity of the biocides determined 1 week after germ addition, week 5: 2 (markedly reduced microbe level is observed (10^3−10^1 bacteria/10^2−10^1 mold/yeast cells per g) (score of 2=good))
[3]; [9]
  Activity of the biocides determined 1 week after germ addition, week 6: 2 (markedly reduced microbe level is observed (10^3−10^1 bacteria/10^2−10^1 mold/yeast cells per g) (score of 2=good))
